Data reported in patent US4233403A, “Amylase assay” (E. I. Du Pont de Nemours and Company, priority 1978, dated 1980).
Values joined by “and” are separate entries in the source; they are usually repeats but may differ in a detail not shown here. Equal entries are not always repeated.

Assays:
α-amylase [1] = assay: amylase assay with nitrophenyl oligosaccharide substrate plus α-glucosidase, rate at 410 nm, standard curve; assay type: biochemical; conditions: for Sensitivity: 4 mg/3 ml G4 pNp, 7.5 IU/3 ml α-glucosidase, pH 6.5, 37° C., 410 nm, from standard curve
Description: A sample of α-(4-nitrophenyl) maltotetraoside (G4 pNp) prepared in accordance with Example 1H of U.S. Patent Application Ser. No. 704,975, filed on the same day as this application, was dissolved in 66.7 mM sodium phosphate buffer, pH 6.5, to provide various substrate concentrations ranging from 2 to 8 mg/3 ml. As described in U.S. Ser. No. 704,975, this substrate sample has been purified using a Sephadex® LH-20 Chromatographic Column. α-Glucosidase of various concentrations ranging from 2.5 to 12.5 International Units per three milliliters of solution (IU/3 ml) was then added to the substrate solution and the volume of the solution was brought up to 3.0 ml. The solution was incubated at 37° C. for 1 to 10 minutes.
(§1) After the blank rate was measured at 410 nm, using a Gilford spectrophotometer, the reaction was initiated by adding 0.1 ml of an Elevated Enzyme Control Product sold by the E. I. du Pont de Nemours and Company (1150 Somogyi Units per deciliter (SU/dl) amylase) diluted 1:1 with Du Pont Enzyme Diluent. This level of amylase is approximately six times the upper normal serum level. The total reaction rate was then measured using the Gilford spectrophotometer, and by subtracting the blank rate from the total rate, the net reaction rate was obtained.
Using these optimum values of G4 pNp and α-glucosidase in a reaction solution of 3 ml, the reaction rates for various amylase sample concentrations were measured and a standard curve was generated. From this curve, the sensitivity in mA/min/SU/dl was measured. The standard curve for this sample is given in FIG. 1; the blank rate and sensitivity are given for this and other examples in Table II.
(§2) The G4 pNp so formed was dissolved in 66.7 mM sodium phosphate buffer, pH 6.5, to provide a substrate concentration of 4 mg/3 ml. Then 7.5 IU/3 ml of α-glucosidase was added to the substrate solution and the volume of the solution was brought up to 3.0 ml. The solution was incubated at 37° C. for one to ten minutes.
(§3) After the blank rate was measured, as described in Example 1 above, the reaction was […] by adding 0.1 ml of Du Pont Elevated Enzyme Control Product, diluted 1:1 with Du Pont Enzyme Diluent. The reaction rates for various amylase sample concentrations were measured as discussed in Example 1 above, and a standard curve was generated. From this curve, the sensitivity in mA/min/SU/dl was measured.
as §2, with “A sample of α-(4-nitrophenyl) maltotetraoside, prepared in accordance with Example 1G of U.S. Patent Application Ser. No. 704,975,” for “The G4 pNp so formed”
(§4) After the blank rate was measured in a Gilford spectrophotometer at 410 nm, the reaction was initiated by adding 0.1 ml of the Du Pont Elevated Enzyme Control Product, diluted 1:1 with Du Pont Enzyme Diluent. The reaction rates for the various amylase sample concentrations were measured, using the Gilford spectrophotometer, and a standard curve was generated. From this curve, the sensitivity in mA/min/SU/dl was measured.
A sample of α-(4-nitrophenyl) maltopentaoside (G5 pNp), prepared in accordance with Example 2E of U.S. Patent Application Ser. No. 704,975, was dissolved in 66.7 mM sodium phosphate buffer, pH 6.5, to provide various substrate concentrations ranging from 4.0 to 12.0 mg/3 ml. α-Glucosidase of various activity ranging from 15 to 45 IU/3 ml was then added to the substrate solution and the volume of the solution was brought up to 3.0 ml. The solution was incubated at 37° C. for one to ten minutes.
Initial tests were conducted using 4.0 mg/3 ml G5 pNp and three α-glucosidase concentrations, 7.0, 14.0, and 28.0 IU/3 ml. […]

α-glucosidase = assay: blank rate: release of 4-nitrophenol from the substrate by the maltase without amylase; assay type: biochemical
Source text: When a maltase, such as α-glucosidase is used, a side reaction which gives rise to a blank rate occurs because of the reactivity of the maltase with the substrate. This means that even in the absence of α-amylase, there will be release of the phenol. Since the maximum velocity of product release from maltase decreases with increasing n, the growth of a blank rate is slower as n increases. One would expect, then, that the blank rate for G5 would be less than that for G4. This is verified by experimentation. However, an additional factor is involved in the choice between higher and lower oligosaccharides (i.e., G4 or G5) as the substrate. In all reactions of the substrate with amylase and reactions of maltase with the substrate, the rate increases, as a function of substrate concentration, to an optimum, at which point it levels off. The substrate concentration at which optimization occurs appears to increase with increasing n so that more of the substrate (and the maltase) must be used to optimize (linearize) the standard curve. For expensive chemicals, this is an important consideration.
A sample of α-(4-nitrophenyl) maltotetraoside (G4 pNp) prepared in accordance with Example 1H of U.S. Patent Application Ser. No. 704,975, filed on the same day as this application, was dissolved in 66.7 mM sodium phosphate buffer, pH 6.5, to provide various substrate concentrations ranging from 2 to 8 mg/3 ml. […]
as §1, with “This level of amylase is approximately six times the upper normal serum level.” left out, “obtained. […]” for “obtained.”
as §3, with “measured. […]” for “measured.”
as §4, with “measured. […]” for “measured.”

α-amylase [2] = assay: cleavage of α-(4-nitrophenyl)maltoside by α-amylase; assay type: biochemical, human
Description: A. P. Jansen and P. G. A. B. Wydeveld, Nature, 182, 525 (1958) postulate that α-(p-nitrophenyl)maltoside could be a substrate for an amylase assay. […] They reported: (1) Incubation of samples of human urine, saliva, duodenal contents and only incidentally serum with α-(p-nitrophenyl)maltoside at 37° for 16 hours produces 4-nitrophenol, identified spectrophotometrically by mixing the hydrolyzate with 0.02 N sodium hydroxide. (2) The hydrolysis was inhibited by protein precipitants such as 10% trichloroacetic acid and 0.5 N silver nitrate. […] In contrast to the teaching of Jansen et al., the method of this invention produces amylase analyses in one hour or less.

[3] = 4 mg/3 ml G4 pNp, 7.5 IU/3 ml α-glucosidase, 66.7 mM sodium phosphate pH 6.5, 37° C., 410 nm, no amylase

SMILES	Sensitivity (α-amylase [1]) [mA/min/SU/dl]	Blank Rate (α-glucosidase; [3])	further results
O=[N+]([O-])c1ccc(O[C@H]2O[C@H](CO)[C@@H](O[C@H]3O[C@H](CO)[C@@H](O[C@H]4O[C@H](CO)[C@@H](O[C@H]5O[C@H](CO)[C@@H](O)[C@H](O)[C@H]5O)[C@H](O)[C@H]4O)[C@H](O)[C@H]3O)[C@H](O)[C@H]2O)cc1 [Example 1, α-(4-nitrophenyl) maltotetraoside]	0.115	5.0 mA/min	–
O=[N+]([O-])c1ccc(O[C@H]2O[C@H](CO)[C@@H](O[C@H]3O[C@H](CO)[C@@H](O[C@H]4O[C@H](CO)[C@@H](O[C@H]5O[C@H](CO)[C@@H](O)[C@H](O)[C@H]5O)[C@H](O)[C@H]4O)[C@H](O)[C@H]3O)[C@H](O)[C@H]2O)cc1 [Example 2, α-(4-nitrophenyl) maltotetraoside]	0.231	–	–
O=[N+]([O-])c1ccc(O[C@H]2O[C@H](CO)[C@@H](O[C@H]3O[C@H](CO)[C@@H](O[C@H]4O[C@H](CO)[C@@H](O[C@H]5O[C@H](CO)[C@@H](O)[C@H](O)[C@H]5O)[C@H](O)[C@H]4O)[C@H](O)[C@H]3O)[C@H](O)[C@H]2O)cc1 [Example 3, α-(4-nitrophenyl) maltotetraoside]	0.110	10.3-13.3 mA/min and 10.3 to 13.3 mA/min	increase in sensitivity, end point determination after quenching (α-amylase [1]; reaction quenched after five minutes with 0.2 M Na2CO3 or 0.002 N NaOH, versus rate assay at pH 6.5): five to ten fold
O=[N+]([O-])c1ccc(O[C@H]2O[C@H](CO)[C@@H](O[C@H]3O[C@H](CO)[C@@H](O[C@H]4O[C@H](CO)[C@@H](O[C@H]5O[C@H](CO)[C@@H](O)[C@H](O)[C@H]5O)[C@H](O)[C@H]4O)[C@H](O)[C@H]3O)[C@H](O)[C@H]2O)cc1 [Example 4, α-(4-nitrophenyl) maltotetraoside]	0.116	3.0 mA/min	–
O=[N+]([O-])c1ccc(O[C@H]2O[C@H](CO)[C@@H](O[C@H]3O[C@H](CO)[C@@H](O[C@H]4O[C@H](CO)[C@@H](O[C@H]5O[C@H](CO)[C@@H](O[C@H]6O[C@H](CO)[C@@H](O)[C@H](O)[C@H]6O)[C@H](O)[C@H]5O)[C@H](O)[C@H]4O)[C@H](O)[C@H]3O)[C@H](O)[C@H]2O)cc1 [G5 pNp, α-(4-nitrophenyl) maltopentaoside]	–	–	Sensitivity (estimated, non-linear curves) (α-amylase [1]; 4.0 mg/3 ml G5 pNp, α-glucosidase 7.0, 14.0, 28.0 IU/3 ml): greater than 0.160 mA/min/IU/dl; Blank Rate (α-glucosidase; 4.0 mg/3 ml G5 pNp, α-glucosidase 7.0, 14.0 and 28.0 IU/3 ml (each case), pH 6.5, 37° C.): 3.0 mA/min
O=[N+]([O-])c1ccc(O[C@H]2O[C@H](CO)[C@@H](O[C@H]3O[C@H](CO)[C@@H](O)[C@H](O)[C@H]3O)[C@H](O)[C@H]2O)cc1 [α-(4-Nitrophenyl)maltoside]	–	–	cleavage of this compound by α-amylase (α-amylase [2]): extremely slow
